Results published in patent US20250019361A1, “(3-QUINOLYL)-QUINAZOLINE” (BASF SE, priority 2021, published 2025).

System: Septoria tritici
Assay: Microtest: activity against leaf blotch on wheat caused by Septoria tritici
Type: cell-based
Settings: 8 ppm
Procedure: The active compounds were formulated separately as a stock solution having a concentration of 10000 ppm in dimethyl sulfoxide.
The stock solutions were mixed according to the ratio, pipetted onto a micro titer plate (MTP) and diluted with water to the stated concentrations.
A spore suspension of Septoria tritici in an aqueous biomalt or yeast-bactopeptone-glycerine or DOB solution was then added.
The measured parameters were compared to the growth of the active compound-free control variant (100%) and the fungus-free blank value to determine the relative growth in % of the pathogens in the respective active compounds.

| SMILES | growth of the pathogen (relative growth in %, control 100%) [%] |
| --- | --- |
| N#CN1c2ccccc2C(c2cnc3c(F)cccc3c2)=NC12CCCC2 [Ex-7] | 19 |
| CCCN1c2c(F)cccc2C(c2cnc3c(F)cccc3c2)=NC1(C)C [Ex-11] | 19 |
| CCN1c2c(F)cccc2C(c2cnc3c(F)cccc3c2)=NC1(C)C [Ex-10] | 19 |
| CC1(C)N=C(c2cnc3c(F)cccc3c2)c2ccccc2N1C#N [Ex-8] | 19 |
| CCCCN1c2c(F)cccc2C(c2cnc3c(F)cccc3c2)=NC1(C)C [Ex-9] | 19 |
